Reference: patent US20240368174A1, “Antiviral Heterocyclic Compounds” (Enanta Pharmaceuticals, Inc., priority 2023, published 2024)

The compounds below were run on genotype A, “Long” strain RSV (assay: RSV-A assay (CPE, ATPlite readout in Hep-2 cells)). Conditions: human respiratory syncytial virus, activity class.
Format: cell-based, Human respiratory syncytial virus
Excerpt: Hep-2 cells, (originally derived from tumors grown in irradiated-cortisonised weanling rats that had been injected with epidermoid carcinoma tissue from the larynx of a person, but later found to be indistinguishable from HeLa cells by PCR DNA analysis), were used for the culturing of genotype A, “Long” strain RSV. Flasks were inoculated with RSV and viral stocks were collected once cytopathic effect (CPE) was greater than 90%. Viral stocks in 25% sucrose media were snap frozen using liquid nitrogen to increase viral stability. Viral stock titers were quantified by tissue culture infectious dose 50% (TCID50) using 8,000 cells per well and 3-fold viral dilutions across a 96-well plate, cultured for 4 days. Viral stock titers were also quantified by a plaque forming unit assay, as described elsewhere.
Following extensive parameter testing, the final assay is run as follows: Hep-2 cells are seeded into the inner 60 wells of a 96-well plate at 8,000 cells per well in a volume of 50 μL using Growth Media (DMEM without phenol red, 1% L-Glut, 1% Penn/Strep, 1% nonessential amino acids, 10% heat-inactivated FBS). 2-fold serial dilutions of control and test compounds are added to the wells in duplicate in a total volume of 25 μL. Viral stock is then added to the wells at a multiplicity of infection (MOI) of 0.1 in a volume of 25 μL, bringing the total volume of each well to 100 μL. The MOI is calculated using the PFU/mL, or TCID50 if unavailable. Each 96-well plate has a control column of 6 wells with cells and virus but no compound (negative control, max CPE), a column with cells but no compound or virus (positive control, minimum CPE), and a column with no cells or virus or compound (background plate/reagent control). The control wells with cells but no virus are given an additional 25 μL of growth media containing an equal quantity of sucrose as those wells receiving the viral stock in order to keep consistent in media and volume conditions. The outer wells of the plate are filled with 125 μL of moat media (DMEM, 1% Penn/Strep) to act as a thermal and evaporative moat around the test wells. Following a 5-day incubation period, the plates are read using ATPlite (50 uL added per well), which quantifies the amount of ATP (a measure of cell health) present in each well. Assay plates are read using the Envision luminometer. […] EC50 ranges are as follows: A<0.2 μM; B>0.2 μM.

SMILES	EC50
COc1cc(C(=O)NC[C@](O)(c2cc3c(c(-c4cc(C(F)(F)F)ncc4F)n2)OC[C@]3(C)C(N)=O)C2CC2)cn2cc(C3CC3)nc12 [Example 662]	< 200 nM
COc1cc(C(=O)NC[C@@](O)(CN(C)C)c2cc3c(c(-c4cc(Cl)c(F)cc4F)n2)OC[C@]3(C)C(N)=O)cc2cn(C3CC3)nc12 [Example 238]	< 200 nM
C#CC(O)(CNC(=O)c1cc(OC)c2nn(C3CC3)cc2c1)c1cc2c(c(-c3cc(Cl)c(F)cc3F)n1)OC[C@]2(C)C(N)=O (stereo partly shown) [Example 473]	< 200 nM
COc1cc(C(=O)NC[C@](O)(c2cc3c(c(-c4cc(C(F)(F)F)ncc4F)n2)OC[C@]3(C)C(N)=O)C2CC2)cc2cn(C3CC3)nc12 [Example 347]	< 200 nM
COc1cc(C(=O)NC[C@](O)(c2cc3c(c(-c4cc(C(F)(F)F)ncc4F)n2)OC[C@]3(C)C(N)=O)C2(F)CC2)cc2oc(C3CC3)nc12 [Example 670]	< 200 nM
COc1cc(C(=O)NC[C@@](O)(c2cccc(F)c2)c2cc3c(c(-c4ccnc(F)c4Cl)n2)OC[C@]3(C)C(N)=O)cc2cn(C3(F)CC3)nc12 [Example 401]	< 200 nM
COc1cc(C(=O)NC[C@](O)(c2cccc(F)c2)c2cc3c(c(-c4ccnc(F)c4Cl)n2)OC[C@]3(C)C(N)=O)cc2cn(C3(F)CC3)nc12 [Example 402]	> 200 nM
COc1cc(C(=O)NC[C@](O)(c2cc3c(c(-c4cc(C(F)(F)F)c(F)cc4F)n2)OC[C@]3(C)C(N)=O)C2CC2)cc2cc(C3CC3)nn12 [Example 327]	< 200 nM
COc1cc(C(=O)NC[C@](O)(c2cc3c(c(-c4cccc(F)c4Cl)n2)OC[C@]3(C)C(N)=O)C2CC2)cc2cn(C3(F)CC3)nc12 [Example 615]	< 200 nM
COc1cc(C(=O)NC[C@](O)(c2cc3c(c(-c4ccnc(C(F)(F)F)c4Cl)n2)OC[C@]3(C)C(N)=O)C(F)(F)F)cc2oc(C3CC3)nc12 [Example 536]	< 200 nM
COc1cc(C(=O)NC[C@](O)(c2cc3c(c(-c4ccnc(C(F)F)c4Cl)n2)OC[C@]3(C)C(N)=O)C2CC2)cc2cn(C3CC3)nc12 [Example 780]	< 200 nM
COc1cc(C(=O)NC[C@@](O)(c2cccc(F)c2)c2cc3c(c(-c4ccnc(F)c4Cl)n2)OC[C@]3(C)C(N)=O)cc2cn(C3CC3)nc12 [Example 407]	< 200 nM
COc1cc(C(=O)NC[C@](O)(c2cc3c(c(-n4ccc5c(F)cccc54)n2)OC[C@]3(C)C(N)=O)C2CC2)cc2oc(C3CC3)nc12 [Example 778]	< 200 nM
COc1cc(C(=O)NC[C@](O)(c2cc3c(c(-n4ccc5c(F)cccc54)n2)OC[C@]3(C)C(N)=O)C2(F)CC2)cc2cn(C3(F)CC3)nc12 [Example 689]	< 200 nM
C[C@]1(C(N)=O)COc2c1cc([C@@](O)(CNC(=O)c1ccc3nc(C4CC4)oc3c1)C1CC1)nc2-c1cc(C(F)(F)F)c(F)cc1F [Example 306]	< 200 nM
COc1cc(C(=O)NC[C@](O)(c2cc3c(c(-c4ccnc(C(F)(F)F)c4Cl)n2)OC[C@]3(C)C(N)=O)C(F)(F)F)cc2cn(C3(F)CC3)nc12 [Example 534]	< 200 nM
COc1cc(C(=O)NC[C@](O)(c2cc3c(c(-n4ccc5c(F)cccc54)n2)OC[C@]3(C)C(N)=O)C(F)(F)F)cc2cn(C3CC3)nc12 [Example 851]	< 200 nM
COc1cc(C(=O)NC[C@](O)(c2cc3c(c(-c4cncc(OC(F)F)c4Cl)n2)OC[C@]3(C)C(N)=O)C2CC2)cc2cn(C(F)F)nc12 [Example 742]	< 200 nM
COc1cc(C(=O)NC[C@](O)(c2cc3c(c(-n4ncc5c(F)cccc54)n2)OC[C@]3(C)C(N)=O)C2CC2)cc2oc(C3CC3)nc12 [Example 622]	< 200 nM
COc1cc(C(=O)NC[C@](O)(c2cc3c(c(-n4ccc5c(F)cccc54)n2)OC[C@]3(C)C(N)=O)C2CC2)cc2cn(C(F)F)nc12 [Example 776]	< 200 nM

The compounds below were run on HMPV clinical isolate A2 strain TN 94-49 (assay: HMPV antiviral assay, Method 2 (LLC-MK2 cells with CP-100-356, ATP-Lite)). Conditions: human metapneumovirus, 168 h; hMPV A2 TN/94-49, LLC-MK2 cells with 4 μM CP-100-356, 7 days, ATP-Lite.
Format: cell-based
Outline: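 LLC-MK2 rhesus kidney cells (5,000/well) infected in suspension with HMPV A2 TN 94-49 at MOI 0.16, in serum-free medium with final 2 μg/mL TPCK-trypsin and 2 μM CP-100-356. Compounds tested in duplicate from 200 nM, 2.5-fold, 10 points; 7 days at 37 °C. Cell health by ATP-Lite luminescence; EC50 by four-parameter fit.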

SMILES	EC50
COc1cc(C(=O)NC[C@](O)(c2cc3c(c(-c4cc(C(F)(F)F)ncc4F)n2)OC[C@]3(C)C(N)=O)C2CC2)cn2cc(C3CC3)nc12 [Example 662]	< 200 nM
COc1cc(C(=O)NC[C@](O)(c2cc3c(c(-c4cc(C(F)(F)F)ncc4F)n2)OC[C@]3(C)C(N)=O)C2(F)CC2)cc2oc(C3CC3)nc12 [Example 670]	< 200 nM
COc1cc(C(=O)NC[C@](O)(c2cc3c(c(-c4ccnc(C(F)F)c4Cl)n2)OC[C@]3(C)C(N)=O)C2CC2)cc2cn(C3CC3)nc12 [Example 780]	< 200 nM
COc1cc(C(=O)NC[C@](O)(c2cc3c(c(-n4ccc5c(F)cccc54)n2)OC[C@]3(C)C(N)=O)C2CC2)cc2oc(C3CC3)nc12 [Example 778]	< 200 nM
COc1cc(C(=O)NC[C@](O)(c2cc3c(c(-n4ccc5c(F)cccc54)n2)OC[C@]3(C)C(N)=O)C2(F)CC2)cc2cn(C3(F)CC3)nc12 [Example 689]	< 200 nM
COc1cc(C(=O)NC[C@](O)(c2cc3c(c(-n4ccc5c(F)cccc54)n2)OC[C@]3(C)C(N)=O)C(F)(F)F)cc2cn(C3CC3)nc12 [Example 851]	< 200 nM
COc1cc(C(=O)NC[C@](O)(c2cc3c(c(-c4cncc(OC(F)F)c4Cl)n2)OC[C@]3(C)C(N)=O)C2CC2)cc2cn(C(F)F)nc12 [Example 742]	< 200 nM
COc1cc(C(=O)NC[C@](O)(c2cc3c(c(-n4ncc5c(F)cccc54)n2)OC[C@]3(C)C(N)=O)C2CC2)cc2oc(C3CC3)nc12 [Example 622]	< 200 nM
COc1cc(C(=O)NC[C@](O)(c2cc3c(c(-n4ccc5c(F)cccc54)n2)OC[C@]3(C)C(N)=O)C2CC2)cc2cn(C(F)F)nc12 [Example 776]	< 200 nM

Same assay, conditions: human metapneumovirus; hMPV A2 TN/94-49, LLC-MK2 cells with CP-100-356, Method 2

SMILES	EC50
COc1cc(C(=O)NC[C@@](O)(CN(C)C)c2cc3c(c(-c4cc(Cl)c(F)cc4F)n2)OC[C@]3(C)C(N)=O)cc2cn(C3CC3)nc12 [Example 238]	> 200 nM
C#CC(O)(CNC(=O)c1cc(OC)c2nn(C3CC3)cc2c1)c1cc2c(c(-c3cc(Cl)c(F)cc3F)n1)OC[C@]2(C)C(N)=O (stereo partly shown) [Example 473]	> 200 nM
COc1cc(C(=O)NC[C@](O)(c2cc3c(c(-c4cc(C(F)(F)F)ncc4F)n2)OC[C@]3(C)C(N)=O)C2CC2)cc2cn(C3CC3)nc12 [Example 347]	< 200 nM
COc1cc(C(=O)NC[C@@](O)(c2cccc(F)c2)c2cc3c(c(-c4ccnc(F)c4Cl)n2)OC[C@]3(C)C(N)=O)cc2cn(C3(F)CC3)nc12 [Example 401]	< 200 nM
COc1cc(C(=O)NC[C@](O)(c2cccc(F)c2)c2cc3c(c(-c4ccnc(F)c4Cl)n2)OC[C@]3(C)C(N)=O)cc2cn(C3(F)CC3)nc12 [Example 402]	> 200 nM
COc1cc(C(=O)NC[C@](O)(c2cc3c(c(-c4cc(C(F)(F)F)c(F)cc4F)n2)OC[C@]3(C)C(N)=O)C2CC2)cc2cc(C3CC3)nn12 [Example 327]	< 200 nM
COc1cc(C(=O)NC[C@](O)(c2cc3c(c(-c4cccc(F)c4Cl)n2)OC[C@]3(C)C(N)=O)C2CC2)cc2cn(C3(F)CC3)nc12 [Example 615]	< 200 nM
COc1cc(C(=O)NC[C@](O)(c2cc3c(c(-c4ccnc(C(F)(F)F)c4Cl)n2)OC[C@]3(C)C(N)=O)C(F)(F)F)cc2oc(C3CC3)nc12 [Example 536]	< 200 nM
COc1cc(C(=O)NC[C@@](O)(c2cccc(F)c2)c2cc3c(c(-c4ccnc(F)c4Cl)n2)OC[C@]3(C)C(N)=O)cc2cn(C3CC3)nc12 [Example 407]	< 200 nM
C[C@]1(C(N)=O)COc2c1cc([C@@](O)(CNC(=O)c1ccc3nc(C4CC4)oc3c1)C1CC1)nc2-c1cc(C(F)(F)F)c(F)cc1F [Example 306]	< 200 nM
COc1cc(C(=O)NC[C@](O)(c2cc3c(c(-c4ccnc(C(F)(F)F)c4Cl)n2)OC[C@]3(C)C(N)=O)C(F)(F)F)cc2cn(C3(F)CC3)nc12 [Example 534]	< 200 nM
